EP4582423A1, “NOVEL TRICYCLIC DERIVATIVE COMPOUND AND USES THEREOF” (Hanmi Pharm. Co., Ltd., priority 2022, dated 2024)

tested on: HCT116 MTAP-/- cells; assay: Cell growth inhibition test (SRB staining); type: cell-based; details: Homo sapiens, HCT-116, 144 h; HCT116 MTAP-/- cells, 0.64 nM - 2,000 nM, 6 dose points, 6 days, SRB staining, absorbance at 540 nm; read-out: HCT116 MTAP-/- cell growth inhibition (GI50)
Procedure: The synthetic compounds above were tested for cell growth inhibition against HCT116 cells.
HCT116 MTAP-/- (homozygous knockout of MTAP gene in HCT116 MTAP-WT cells by CRISPER/Cas9 method) cells were maintained in RPMI1640 medium containing 10 % FBS and 1 % penicillin-streptomycin. Approximately 5×10^2 cells were seeded in a 96-well plate and treated with a test compound. (0.64 nM - 2,000 nM, 6 dose points for HCT116 MTAP-/- cells for 5x and 6 days) cell growth was measured by SRB staining and absorbance was detected at 540 nm on a Synergy™ NEO microplate reader. The 50 % growth inhibition value (GI50) of the cell line was calculated using GraphPad Prism V9 software.

| GI50 [nM] | Structure (SMILES) |
| --- | --- |
| < 100 | COc1ccc(Cc2nc3c(=O)n(-c4cccnc4C)c4cc(C(F)(F)F)ccc4c3n2C)cc1 [Compound 27, 2-(4-methoxybenzyl)-1-methyl-5-(2-methylpyridin-3-yl)-7-(trifluoromethyl)-1,5-dihydro-4H-imidazo[4,5-c]quinolin-4-one] |
| < 100 | Cc1ncccc1-n1c(=O)c2nc(Cc3ccc(OC(F)F)cc3)n(C)c2c2ccc(C(F)(F)F)nc21 [Compound 58, 2-(4-(Difluoromethoxy)benzyl)-1-methyl-5-(2-methylpyridin-3-yl)-7-(trifluoromethyl)-1,5-dihydro-4H-imidazo[4,5-c][1,8]naphthyridin-4-one] |
| < 100 | COc1ccc(Sc2nc3c(=O)n(-c4cccnc4C)c4nc(C(F)(F)F)ccc4c3n2C)cc1 [Compound 59, 2-((4-methoxyphenyl)thio)-1-methyl-5-(2-methylpyridin-3-yl)-7-(trifluoromethyl)-1,5-dihydro-4H-imidazo[4,5-c][1,8]naphthyridin-4-one] |

Further lines, the compound ahead of its results:

| Structure (SMILES) | GI50 [nM] |
| --- | --- |
| COc1ccc(Cc2nc3c(=O)n(-c4cccnc4C)c4cc(C(C)C)ccc4c3n2C)cc1 [Compound 48, 7-isopropyl-2-(4-methoxybenzyl)-1-methyl-5-(2-methylpyridin-3-yl)-1,5-dihydro-4H-imidazo[4,5-c]quinolin-4-one] | 100 to 500 |
| COc1ccc(Sc2nc3c(=O)n(-c4cccnc4C)c4nc(C(F)(F)F)ncc4c3n2C)cc1 [Compound 61, 2-((4-methoxyphenyl)thio)-1-methyl-5-(2-methylpyridin-3-yl)-7-(trifluoromethyl)-1,5-dihydro-4H-imidazo[4',5':4,5]pyrido[2,3-d]pyrimidin-4-one] | < 100 |
| COc1ccc(Cc2nc3c(=O)n(-c4cccnc4)c4cc(Cl)ccc4c3n2C)cc1 [Compound 31, 7-chloro-2-(4-methoxybenzyl)-1-methyl-5-(pyridin-3-yl)-1,5-dihydro-4H-imidazo[4,5-c]quinolin-4-one] | < 100 |
